# According to publication PMC11528125, “Characterization of O-methyltransferases in the biosynthesis of phenylphenalenone phytoalexins based on the telomere-to-telomere gapless genome of Musella lasiocarpa” (Horticulture Research, 2024):
# B1: Ml04G2958 (Musella lasiocarpa) (protein)
# chain: MAGPHVVDAVGEHSEPYKSASRAHHHHYRHHSSLPLRTMGSVRAAAAALQPSPEEDEEACLQAGQLVSSSVLPMTLKAAIELQLLEIIVGAGPGARLSPADVAAQLPTTNPQAAAMVDRILRLLAAYGIVGCSVEAGPDGRPCRKYGAAPVCKYLTRNEDGVSFAALSLMNQDKVLMESWYHLKDAVLEGGIPFNKAYGMTAFEYHGTDPRFNKVFNEGMRSHSIIITKKLLQVYRGFDDVKVLVDVGGGTGATLHMITSTHPHILGINYDLPHVISDAPPLPGVEHVSGDMFESVPGGDAILMKWILHDWSDEHCAKILKNCWKALPEKGKLIAVECVLPVVPEPSLRTQSVCHVDLIMLAHNPGGKERTEMEFEELAKQAGFSGFKPTYVYASTWALEFTK
# notes: MBP fusion from pMAL-c4x (EcoRI/SalI), E. coli BL21 (DE3), purified
# How the values were obtained:
# Assay in all cases: MTase-Glo methyltransferase assay (SAH luminescence), Michaelis-Menten fit
# Format in all cases: biochemical, Musella lasiocarpa
# Ml08G0855 = system: T1, Ml08G0855; conditions: 2 mM SAM, 45°C, 30 min; Tris-HCl; read-out: apparent Km
# T1 construct: MBP fusion from pMAL-c4x (EcoRI/SalI), E. coli BL21 (DE3), purified
# Ml01G0494 = system: T2, Ml01G0494; conditions: 2 mM SAM, 45°C, 30 min; Tris-HCl; read-out: apparent Km
# T2 construct: MBP fusion from pMAL-c4x (EcoRI/SalI), E. coli BL21 (DE3), purified
# [1] = substrate: O=C1C(O)=Cc2cccc3ccc(-c4ccc(O)cc4)c1c23; conditions: 2 mM SAM, 45°C, 30 min, Tris-HCl
# Source text: (§1) MTase-Glo methyltransferase assay (SAH luminescence), Michaelis-Menten fit on Ml04G2958 | The apparent Kcat/Km values of Ml01G0494, Ml04G2958, and Ml08G0855 for MLT3 | the apparent Kcat/Km values of Ml01G0494, Ml04G2958, and Ml08G0855 for MLT4
# [2] = substrate: O=C1C(O)=Cc2cccc3ccc(-c4ccccc4)c1c23; conditions: 2 mM SAM, 45°C, 30 min, Tris-HCl
# Source text: as §1
molecule,measurement,setting,value
O=C1C(O)=Cc2cccc3ccc(-c4ccc(O)cc4)c1c23 [MLT3],Km,Ml08G0855,111 ± 27.4 µM
same,Km,Ml01G0494,60.4 ± 16.6 µM
O=C1C(O)=Cc2cccc3ccc(-c4ccccc4)c1c23 [MLT4],Km,Ml08G0855,37.3 ± 10.7 µM
same,Km,Ml01G0494,8.51 ± 0.13 µM
O=C1C(O)=Cc2c(-c3ccc(O)c(O)c3)ccc3cccc1c23 [MLT9],Km,Ml08G0855,81.9 µM
same,Km,Ml01G0494,971 µM
B1,Km,[1],69.94 ± 14.71 µM
same,kcat,[1],0.0005 s⁻¹
same,Km,[2],5.30 ± 0.68 µM
same,kcat,[2],0.00033 s⁻¹
